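96-well plates; 48 h exposure; 5 concentrations. Endpoints by linear interpolation between flanking doses. Not reached: highest tested concentration assigned. GI50 marks 50% less growth.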 The source made the active and inactive calls. No stated cut-off is given here; in the data, active = GI50 up to about 1.1 µM and inactive = higher.
Tests used:
Assay in all cases: DTP human tumour cell line panel, 48 h
NCI/ADR-RES = test system: NCI/ADR-RES
SK-MEL-5 = test system: SK-MEL-5
UACC-62 = test system: UACC-62
SW-620 = test system: SW-620
KM12 = test system: KM12
CCRF-CEM = test system: CCRF-CEM
U-251 = test system: U-251
OVCAR-8 = test system: OVCAR-8
UO-31 = test system: UO-31
OVCAR-4 = test system: OVCAR-4
SK-OV-3 = test system: SK-OV-3
CAKI-1 = test system: CAKI-1
Malme-3M = test system: Malme-3M
Hs-578T = test system: Hs-578T
COLO 205 = test system: COLO 205
M14 = test system: M14
TK-10 = test system: TK-10
SK-MEL-28 = test system: SK-MEL-28
UACC-257 = test system: UACC-257
K562 = test system: K562

Compound	GI50 (NCI/ADR-RES)	GI50 (SK-MEL-5)	GI50 (UACC-62)	GI50 (SW-620)	GI50 (KM12)	GI50 (CCRF-CEM)	GI50 (U-251)	GI50 (OVCAR-8)	GI50 (UO-31)	GI50 (OVCAR-4)	GI50 (SK-OV-3)	GI50 (CAKI-1)	GI50 (Malme-3M)	GI50 (Hs-578T)	GI50 (COLO 205)	GI50 (M14)	GI50 (TK-10)	GI50 (SK-MEL-28)	GI50 (UACC-257)	GI50 (K562)
COc1cc([C@@H]2c3cc4c(cc3C[C@H]3COC(=O)[C@@H]32)OCO4)cc2c1OCO2 [AUSTROBAILIGNAN 1]	< 0.01 µM (active)	< 0.01 µM (active)	< 0.01 µM (active)	< 0.01 µM (active)	0.132 µM (active)	0.664 µM (active)	< 0.01 µM (active)	< 0.01 µM (active)	< 0.01 µM (active)	11.4 µM (inactive)	< 0.01 µM (active)	< 0.01 µM (active)	< 0.01 µM (active)	< 0.01 µM (active)	0.0108 µM (active)	< 0.01 µM (active)	1.99 µM (inactive)	< 0.01 µM (active)	–	–
COC(=O)/C(=N\N)C(C(=O)C(=O)Nc1cc(Cl)ccc1Cl)c1nc2ccc([N+](=O)[O-])cc2nc1O (centres undefined)	> 100 µM (inactive)	> 100 µM (inactive)	> 100 µM (inactive)	> 100 µM (inactive)	> 100 µM (inactive)	> 100 µM (inactive)	> 100 µM (inactive)	> 100 µM (inactive)	29.6 µM (inactive)	> 100 µM (inactive)	> 100 µM (inactive)	> 100 µM (inactive)	> 100 µM (inactive)	47.9 µM (inactive)	–	> 100 µM (inactive)	> 100 µM (inactive)	> 100 µM (inactive)	> 100 µM (inactive)	> 100 µM (inactive)
CC[N+]1(C)CCC(O)(c2ccc(C)cc2)C(C(=O)c2ccc(C)cc2)C1 (centres undefined)	> 100 µM (inactive)	> 100 µM (inactive)	> 100 µM (inactive)	20.6 µM (inactive)	> 100 µM (inactive)	22 µM (inactive)	> 100 µM (inactive)	34.2 µM (inactive)	> 100 µM (inactive)	34.4 µM (inactive)	> 100 µM (inactive)	23.9 µM (inactive)	26.1 µM (inactive)	> 100 µM (inactive)	25.5 µM (inactive)	44.8 µM (inactive)	20.2 µM (inactive)	–	62.5 µM (inactive)	19.6 µM (inactive)
COc1cccc(/C=C\c2ccc(O)cc2)c1	6.12 µM (inactive)	17.6 µM (inactive)	10.2 µM (inactive)	15.2 µM (inactive)	1.4 µM (inactive)	–	11.2 µM (inactive)	12.3 µM (inactive)	5.4 µM (inactive)	23.7 µM (inactive)	36.5 µM (inactive)	17.7 µM (inactive)	20.2 µM (inactive)	19.7 µM (inactive)	48.1 µM (inactive)	17.5 µM (inactive)	52.4 µM (inactive)	40.1 µM (inactive)	26.7 µM (inactive)	8.77 µM (inactive)
CSC1=C(C(=O)Nc2ccccc2)C(N)=NC1=O	> 100 µM (inactive)	> 100 µM (inactive)	62.8 µM (inactive)	> 100 µM (inactive)	> 100 µM (inactive)	> 100 µM (inactive)	> 100 µM (inactive)	> 100 µM (inactive)	17.1 µM (inactive)	> 100 µM (inactive)	> 100 µM (inactive)	27.5 µM (inactive)	> 100 µM (inactive)	> 100 µM (inactive)	> 100 µM (inactive)	–	> 100 µM (inactive)	> 100 µM (inactive)	> 100 µM (inactive)	> 100 µM (inactive)
CCN(C(C)=O)c1cnc(/C=N/NC(N)=S)c2ccccc12	10.6 µM (inactive)	2.84 µM (inactive)	3.3 µM (inactive)	5.68 µM (inactive)	2.94 µM (inactive)	2.54 µM (inactive)	3.85 µM (inactive)	2.29 µM (inactive)	1.81 µM (inactive)	9.31 µM (inactive)	3.65 µM (inactive)	3.3 µM (inactive)	11.4 µM (inactive)	80.5 µM (inactive)	4.83 µM (inactive)	2.58 µM (inactive)	4.59 µM (inactive)	–	30.1 µM (inactive)	4 µM (inactive)
CNc1cccc2c1C(C)C[C@]1(C)C(=O)Nc3ccccc3[C@H]21 (some centres undefined)	23.1 µM (inactive)	43.8 µM (inactive)	37.7 µM (inactive)	33.9 µM (inactive)	26.1 µM (inactive)	40.7 µM (inactive)	–	19.1 µM (inactive)	23.1 µM (inactive)	18.1 µM (inactive)	–	26.5 µM (inactive)	19.5 µM (inactive)	27.7 µM (inactive)	29.8 µM (inactive)	20.2 µM (inactive)	13.8 µM (inactive)	30.3 µM (inactive)	13.4 µM (inactive)	> 100 µM (inactive)
COC(=O)/C=C(/OC)[C@H](C)[C@H](/C=C/c1csc(-c2csc(C(C)C)n2)n1)OC	0.841 µM (active)	< 0.0177 µM (active)	0.33 µM (active)	0.741 µM (active)	1.52 µM (inactive)	18.2 µM (inactive)	0.149 µM (active)	0.785 µM (active)	0.703 µM (active)	0.416 µM (active)	> 62.1 µM (inactive)	7.08 µM (inactive)	18.8 µM (inactive)	> 57.8 µM (inactive)	3.38 µM (inactive)	1.44 µM (inactive)	–	63.5 µM (inactive)	0.455 µM (active)	0.52 µM (active)
Cc1cn(C2CCC(CO)(CF)O2)c(=O)[nH]c1=O (centres undefined)	> 100 µM (inactive)	> 100 µM (inactive)	> 100 µM (inactive)	> 100 µM (inactive)	> 100 µM (inactive)	> 100 µM (inactive)	> 100 µM (inactive)	> 100 µM (inactive)	> 100 µM (inactive)	> 100 µM (inactive)	> 100 µM (inactive)	> 100 µM (inactive)	–	> 100 µM (inactive)	> 100 µM (inactive)	> 100 µM (inactive)	> 100 µM (inactive)	> 100 µM (inactive)	> 100 µM (inactive)	> 100 µM (inactive)
COc1cc(C2c3cc4c(cc3OC(N3CCOCC3)C2C)OCO4)ccc1O (centres undefined)	5.96 µM (inactive)	9.53 µM (inactive)	8.05 µM (inactive)	6.3 µM (inactive)	7.83 µM (inactive)	8.67 µM (inactive)	14.5 µM (inactive)	26.9 µM (inactive)	16 µM (inactive)	50.9 µM (inactive)	–	31.2 µM (inactive)	10.9 µM (inactive)	6.55 µM (inactive)	25.3 µM (inactive)	6.34 µM (inactive)	36.5 µM (inactive)	34.1 µM (inactive)	40.7 µM (inactive)	4.35 µM (inactive)
N#Cc1ccc(OCc2ccc3nc(-c4ccccc4)c(Cl)nc3c2)cc1	> 100 µM (inactive)	> 100 µM (inactive)	> 100 µM (inactive)	> 100 µM (inactive)	> 100 µM (inactive)	> 100 µM (inactive)	72.1 µM (inactive)	> 100 µM (inactive)	> 100 µM (inactive)	> 100 µM (inactive)	–	> 100 µM (inactive)	> 100 µM (inactive)	> 100 µM (inactive)	> 100 µM (inactive)	> 100 µM (inactive)	58.1 µM (inactive)	> 100 µM (inactive)	> 100 µM (inactive)	–
O=C(Nc1nc(C23CC4CC(CC(C4)C2)C3)cs1)c1cc2c(ccc3ccccc32)oc1=O	> 100 µM (inactive)	> 100 µM (inactive)	–	> 100 µM (inactive)	> 100 µM (inactive)	> 100 µM (inactive)	> 100 µM (inactive)	> 100 µM (inactive)	> 100 µM (inactive)	> 100 µM (inactive)	–	> 100 µM (inactive)	> 100 µM (inactive)	> 100 µM (inactive)	> 100 µM (inactive)	–	> 100 µM (inactive)	> 100 µM (inactive)	> 100 µM (inactive)	> 100 µM (inactive)
N#Cc1c(N)nc(-c2ccc(Cl)cc2)c2c1-c1ccccc1S(=O)(=O)CC2	52.5 µM (inactive)	> 100 µM (inactive)	> 100 µM (inactive)	> 100 µM (inactive)	> 100 µM (inactive)	–	37.3 µM (inactive)	34 µM (inactive)	> 100 µM (inactive)	23.2 µM (inactive)	–	> 100 µM (inactive)	> 100 µM (inactive)	46.1 µM (inactive)	> 100 µM (inactive)	> 100 µM (inactive)	> 100 µM (inactive)	> 100 µM (inactive)	> 100 µM (inactive)	> 100 µM (inactive)
CCCCCCCCCCCCO[PH](=O)OCCCCCCCCCCCC	> 100 µM (inactive)	> 100 µM (inactive)	> 100 µM (inactive)	> 100 µM (inactive)	32.2 µM (inactive)	> 100 µM (inactive)	> 100 µM (inactive)	> 100 µM (inactive)	> 100 µM (inactive)	> 100 µM (inactive)	> 100 µM (inactive)	–	> 100 µM (inactive)	> 100 µM (inactive)	> 100 µM (inactive)	> 100 µM (inactive)	34.4 µM (inactive)	> 100 µM (inactive)	28.3 µM (inactive)	> 100 µM (inactive)
C=CCn1c(=O)c2ccccc2[n+]2c(C)c(C(=O)OCC)sc12	> 100 µM (inactive)	> 100 µM (inactive)	> 100 µM (inactive)	> 100 µM (inactive)	> 100 µM (inactive)	> 100 µM (inactive)	90.2 µM (inactive)	> 100 µM (inactive)	> 100 µM (inactive)	> 100 µM (inactive)	> 100 µM (inactive)	> 100 µM (inactive)	–	> 100 µM (inactive)	> 100 µM (inactive)	> 100 µM (inactive)	> 100 µM (inactive)	> 100 µM (inactive)	> 100 µM (inactive)	> 100 µM (inactive)
